Converted amounts (≈) assume the structure as drawn. Where two headings read alike, the source gives them in different places.
Columns and labels:
Format in all cases: cell-based
[1] = tested on: Pseudomonas aeruginosa GN315; assay: Minimum inhibitory concentration, serial dilution on nutrient agar
[2] = tested on: Pseudomonas aeruginosa B-13; assay: as above; settings: B13, 37° C., 18 hours incubation
[3] = tested on: Pseudomonas aeruginosa K-Ps102; assay: as above
Escherichia coli K-12 R5 = assay: as above; settings: K12R5, 18 h
[4] = tested on: Pseudomonas aeruginosa A3; assay: as above; settings: 37° C., 18 hours incubation
[5] = tested on: Mycobacterium smegmatis ATCC 607; assay: as above; settings: Mycolicibacterium smegmatis
[6] = tested on: Pseudomonas maltophilia GN907; assay: as above; settings: Stenotrophomonas maltophilia, 37° C., 18 hours incubation
[7] = tested on: Pseudomonas aeruginosa 99; assay: as above; settings: Pseudomonas aeruginosa, 99; nutrient agar, 37° C., 18 hours incubation; read-out: MIC
[8] = tested on: Pseudomonas aeruginosa TI-13; assay: as above
[9] = tested on: Bacillus subtilis PCI 219; assay: as above; settings: PCI219, 37° C., 18 hours incubation
[10] = tested on: Bacillus cereus ATCC 10702; assay: as above; settings: ATCC10702, nutrient agar, 37° C., 18 hours incubation, read-out: MIC
[11] = tested on: Escherichia coli K-12 LA 290 R56; assay: as above; settings: K12LA290R56, 18 h
Proteus rettgeri GN311 = assay: as above; settings: Providencia rettgeri, 37° C., 18 hours incubation
Salmonella typhi T-63 = assay: as above; settings: Salmonella enterica, 18 h
[12] = tested on: Pseudomonas aeruginosa No. 12; assay: as above
[13] = tested on: Klebsiella pneumoniae 22 #3038; assay: as above
[14] = tested on: Micrococcus flavus FDA 16; assay: as above
[15] = tested on: Bacillus subtilis NRRL B-558; assay: as above; settings: NRRLB558, 37° C., 18 hours incubation
[16] = tested on: Pseudomonas aeruginosa H11; assay: as above; settings: H11, nutrient agar, 37° C., 18 hours incubation, read-out: MIC
Escherichia coli K-12 = assay: as above
[17] = tested on: Pseudomonas aeruginosa ROS134/PU21; assay: as above; settings: ROS134/PU21, 18 h
[18] = tested on: Staphylococcus aureus Smith; assay: as above; settings: 37° C., 18 hours incubation
[19] = tested on: Pseudomonas aeruginosa 21-75; assay: as above; settings: 2175, 37° C., 18 hours incubation
Escherichia coli NIHJ = assay: as above
[20] = tested on: Klebsiella pneumoniae PCI 602; assay: as above
[21] = tested on: Escherichia coli K-12 R 388; assay: as above; settings: K12R388, 18 h
[22] = tested on: Staphylococcus epidermidis 109; assay: as above
Proteus rettgeri GN466 = assay: as above; settings: Providencia rettgeri, GN466; nutrient agar, 37° C., 18 hours incubation; read-out: MIC
Providencia Pv 16 = assay: as above; settings: PV16, 37° C., 18 hours incubation
[23] = tested on: Escherichia coli K-12 ML 1410; assay: as above
Serratia marcescens = assay: as above; settings: 37° C., 18 hours incubation
[24] = tested on: Escherichia coli JR66/W677; assay: as above
Proteus vulgaris OX19 = assay: as above; settings: 37° C., 18 hours incubation
[25] = tested on: Pseudomonas aeruginosa H9; assay: as above
Sarcina lutea PCI 1001 = assay: as above; settings: Micrococcus luteus, PCI1001; nutrient agar, 37° C., 18 hours incubation; read-out: MIC
Escherichia coli JR255 = assay: as above
Serratia 4 = assay: as above; settings: 37° C., 18 hours incubation
[26] = tested on: Escherichia coli K-12 ML 1629; assay: as above
[27] = tested on: Staphylococcus aureus AP01; assay: as above; settings: 37° C., 18 hours incubation
[28] = tested on: Escherichia coli K-12 LA 290 R55; assay: as above; settings: K12LA290R55, 18 h
Bacillus anthracis = assay: microbe, parasite or virus in culture; settings: 18 h
[29] = nutrient agar, 37° C., 18 hours incubation, read-out: MIC

Compound: CNC[C@@H]1CC[C@@H](N)[C@@H](O[C@H]2C[C@@H](O[C@H]3O[C@H](CO)[C@@H](O)[C@H](N)[C@H]3O)[C@H](N)C[C@@H]2N)O1 [TrideoxyMKMB, 5,3',4'-trideoxy-6'-N-methylkanamycin B]
- MIC ([1]; GN315, nutrient agar, 37° C., 18 hours incubation, read-out: MIC): 25 µg/mL (≈ 55.6 µM)
- MIC [2]: 100 µg/mL (≈ 222 µM)
- MIC ([3]; KPS102, nutrient agar, 37° C., 18 hours incubation, read-out: MIC): 25 µg/mL (≈ 55.6 µM)
- MIC (Escherichia coli K-12 R5): 50 µg/mL (≈ 111 µM)
- MIC [4]: 3.13 µg/mL (≈ 6.96 µM)
- MIC ([5]; ATCC607, 18 h): 6.25 µg/mL (≈ 13.9 µM)
- MIC [6]: > 100 µg/mL
- MIC [7]: 50 µg/mL (≈ 111 µM)
- MIC ([8]; TI13, nutrient agar, 37° C., 18 hours incubation, read-out: MIC): 12.5 µg/mL (≈ 27.8 µM)
- MIC [9]: < 0.2 µg/mL
- MIC [10]: 12.5 µg/mL (≈ 27.8 µM)
- MIC [11]: 25 µg/mL (≈ 55.6 µM)
- MIC (Proteus rettgeri GN311): 100 µg/mL (≈ 222 µM)
- MIC (Salmonella typhi T-63): 6.25 µg/mL (≈ 13.9 µM)
- MIC ([12]; NO.12, nutrient agar, 37° C., 18 hours incubation, read-out: MIC): 25 µg/mL (≈ 55.6 µM)
- MIC [13, 29]: 100 µg/mL (≈ 222 µM)
- MIC ([14]; FDA16, nutrient agar, 37° C., 18 hours incubation, read-out: MIC): 100 µg/mL (≈ 222 µM)
- MIC [15]: 0.78 µg/mL (≈ 1.74 µM)
- MIC [16]: 25 µg/mL (≈ 55.6 µM)
- MIC (Escherichia coli K-12; K12, nutrient agar, 37° C., 18 hours incubation, read-out: MIC): 12.5 µg/mL (≈ 27.8 µM)
- MIC [17]: > 100 µg/mL
- MIC [18]: 0.39 µg/mL (≈ 0.868 µM)
- MIC [19]: > 100 µg/mL
- MIC (Escherichia coli NIHJ; [29]): 12.5 µg/mL (≈ 27.8 µM)
- MIC ([20]; PCI602, nutrient agar, 37° C., 18 hours incubation, read-out: MIC): 12.5 µg/mL (≈ 27.8 µM)
- MIC [21]: 12.5 µg/mL (≈ 27.8 µM)
- MIC ([22]; Staphylococcus epidermidis, 109, 18 h): 6.25 µg/mL (≈ 13.9 µM)
- MIC (Proteus rettgeri GN466): 25 µg/mL (≈ 55.6 µM)
- MIC (Providencia Pv 16): > 100 µg/mL
- MIC ([23]; K12ML1410, nutrient agar, 37° C., 18 hours incubation, read-out: MIC): 25 µg/mL (≈ 55.6 µM)
- MIC (Serratia marcescens): 100 µg/mL (≈ 222 µM)
- MIC ([24]; JR66/W677, nutrient agar, 37° C., 18 hours incubation, read-out: MIC): 100 µg/mL (≈ 222 µM)
- MIC (Proteus vulgaris OX19): 3.13 µg/mL (≈ 6.96 µM)
- MIC ([25]; H9, nutrient agar, 37° C., 18 hours incubation, read-out: MIC): 25 µg/mL (≈ 55.6 µM)
- MIC (Sarcina lutea PCI 1001): 25 µg/mL (≈ 55.6 µM)
- MIC (Escherichia coli JR255; JR255, nutrient agar, 37° C., 18 hours incubation, read-out: MIC): 100 µg/mL (≈ 222 µM)
- MIC (Serratia 4): 50 µg/mL (≈ 111 µM)
- MIC ([26]; K12ML1629, nutrient agar, 37° C., 18 hours incubation, read-out: MIC): 25 µg/mL (≈ 55.6 µM)
- MIC [27]: 25 µg/mL (≈ 55.6 µM)
- MIC [28]: 100 µg/mL (≈ 222 µM)
- MIC (Bacillus anthracis): 0.78 µg/mL (≈ 1.74 µM)

Compound: CNC[C@@H]1CC[C@@H](N)[C@@H](O[C@H]2C[C@@H](O[C@H]3O[C@H](CO)[C@@H](O)[C@H](N)[C@H]3O)[C@H](NC(=O)C(O)CN)C[C@@H]2N)O1 (stereo partly drawn) [AHP-trideoxyMKMB, 1-N-[(RS)-3-amino-2-hydroxypropionyl]-5,3',4'-trideoxy-6'-N-methylkanamycin B]
- MIC ([1]; GN315, 18 h): 3.13 µg/mL (≈ 5.83 µM)
- MIC [2]: 25 µg/mL (≈ 46.6 µM)
- MIC ([3]; KPS102, 18 h): 3.13 µg/mL (≈ 5.83 µM)
- MIC (Escherichia coli K-12 R5): 12.5 µg/mL (≈ 23.3 µM)
- MIC [4]: 0.78 µg/mL (≈ 1.45 µM)
- MIC ([5]; ATCC607, nutrient agar, 37° C., 18 hours incubation, read-out: MIC): 0.39 µg/mL (≈ 0.727 µM)
- MIC [6]: > 100 µg/mL
- MIC [7]: 12.5 µg/mL (≈ 23.3 µM)
- MIC ([8]; TI13, 18 h): 3.13 µg/mL (≈ 5.83 µM)
- MIC [9]: 0.39 µg/mL (≈ 0.727 µM)
- MIC [10]: 1.56 µg/mL (≈ 2.91 µM)
- MIC [11]: 3.13 µg/mL (≈ 5.83 µM)
- MIC (Proteus rettgeri GN311): 25 µg/mL (≈ 46.6 µM)
- MIC (Salmonella typhi T-63): 3.13 µg/mL (≈ 5.83 µM)
- MIC ([12]; NO.12, 18 h): 3.13 µg/mL (≈ 5.83 µM)
- MIC ([13]; 18 h): 3.13 µg/mL (≈ 5.83 µM)
- MIC ([14]; FDA16, 18 h): 3.13 µg/mL (≈ 5.83 µM)
- MIC [15]: 0.39 µg/mL (≈ 0.727 µM)
- MIC [16]: 12.5 µg/mL (≈ 23.3 µM)
- MIC (Escherichia coli K-12; K12, 18 h): 3.13 µg/mL (≈ 5.83 µM)
- MIC [17]: 50 µg/mL (≈ 93.2 µM)
- MIC [18]: < 0.2 µg/mL
- MIC [19]: 25 µg/mL (≈ 46.6 µM)
- MIC (Escherichia coli NIHJ; 18 h): 3.13 µg/mL (≈ 5.83 µM)
- MIC ([20]; PCI602, 18 h): 3.13 µg/mL (≈ 5.83 µM)
- MIC [21]: 1.56 µg/mL (≈ 2.91 µM)
- MIC ([22]; Staphylococcus epidermidis, 109, nutrient agar, 37° C., 18 hours incubation, read-out: MIC): < 0.2 µg/mL
- MIC (Proteus rettgeri GN466): 12.5 µg/mL (≈ 23.3 µM)
- MIC (Providencia Pv 16): 50 µg/mL (≈ 93.2 µM)
- MIC ([23]; K12ML1410, 18 h): 3.13 µg/mL (≈ 5.83 µM)
- MIC (Serratia marcescens): 12.5 µg/mL (≈ 23.3 µM)
- MIC ([24]; JR66/W677, 18 h): 6.25 µg/mL (≈ 11.6 µM)
- MIC (Proteus vulgaris OX19): 0.78 µg/mL (≈ 1.45 µM)
- MIC ([25]; H9, 18 h): 3.13 µg/mL (≈ 5.83 µM)
- MIC (Sarcina lutea PCI 1001): 0.78 µg/mL (≈ 1.45 µM)
- MIC (Escherichia coli JR255; JR255, 18 h): 3.13 µg/mL (≈ 5.83 µM)
- MIC (Serratia 4): 12.5 µg/mL (≈ 23.3 µM)
- MIC ([26]; K12ML1629, 18 h): 3.13 µg/mL (≈ 5.83 µM)
- MIC [27]: < 0.2 µg/mL
- MIC [28]: 6.25 µg/mL (≈ 11.6 µM)
- MIC (Bacillus anthracis): < 0.2 µg/mL

— patent publication US4410516A, “1-N(αHydroxy-ω-aminoalkanoyl) derivatives of 5,3',4'-trideoxy- or 5,3', 4'-trideoxy-6'-N- methyl- or 5, 3', 4',6"-tetradeoxykannamyci B and production thereof” (Zaidan Hojin Biseibutsu Kagaku Kenkyu Kai, priority 1981, dated 1983)
